Test results: patent publication US20250263370A1 (Tay Therapeutics Limited, priority 2022, published 2025)
“And” between values parts separate entries of the source, which are not always exact repeats. Equal entries are not always repeated. “Also recorded” adds a separate entry of the source.

Test system: collagen-induced arthritis
Assay: Collagen-induced arthritis (CIA) model in rats: body weight, paw volume, clinical scores, clinical observations; on Average detailed clinical score, left hind limb: key of the grades not given here; on Average detailed clinical score, right hind limb: key of the grades not given here; on Detailed Clinical Scores, left forelimb: key of the grades not given here; on Detailed Clinical Scores, left hind limb: key of the grades not given here; on Detailed Clinical Scores, right forelimb: key of the grades not given here; on Detailed Clinical Scores, right hind limb: key of the grades not given here; on Detailed Clinical Scores, score: key of the grades not given here; on Mean overall clinical score ± SD: key of the grades not given here; on Overall clinical score: key of the grades not given here
Details: for Mean animal paw volume ± SD: group mean; for Detailed Clinical Scores, left forelimb / Detailed Clinical Scores, left hind limb / Detailed Clinical Scores, right forelimb / Detailed Clinical Scores, right hind limb / Detailed Clinical Scores, score: individual animals ID 1-8; for Overall clinical score: individual animals #1-8

## C[C@@H]1C[C@H]2[C@@H]3CCC4=CC(=O)C=C[C@]4(C)[C@@]3(F)[C@@H](O)C[C@]2(C)[C@@]1(O)C(=O)CO [dexamethasone]
CIA rats, Day 0, left hind paw (L)
  Average animal paw volume percent change: 0.00%
CIA rats, Day 0, left paw, individual animals
  Animal paw volume Day 0 L: 1.35 mL and 1.31 mL and 1.39 mL and 1.33 mL and 1.30 mL (2×) and 1.34 mL and 1.36 mL
CIA rats, Day 0, right hind paw (R)
  Average animal paw volume percent change: 0.00%
CIA rats, Day 0, right paw, individual animals
  Animal paw volume Day 0 R: 1.34 mL and 1.30 mL (2×) and 1.38 mL and 1.35 mL and 1.29 mL and 1.36 mL and 1.37 mL
CIA rats, Day 6, left hind paw (L)
  Average animal paw volume percent change: −3.37%
CIA rats, Day 6, left paw, individual animals
  Animal paw volume Day 6 L: 1.31 mL and 1.29 mL (3×) and 1.34 mL and 1.26 mL (2×) and 1.28 mL
CIA rats, Day 6, right hind paw (R)
  Average animal paw volume percent change: −3.26%
CIA rats, Day 6, right paw, individual animals
  Animal paw volume Day 6 R: 1.30 mL (3×) and 1.28 mL (2×) and 1.34 mL and 1.27 mL and 1.26 mL
CIA rats, Day 12, left hind paw (L)
  Average animal paw volume percent change: −4.94%
CIA rats, Day 12, left paw, individual animals
  Animal paw volume Day 12 L: 1.21 mL (2×) and 1.37 mL and 1.28 mL (2×) and 1.22 mL and 1.30 mL and 1.29 mL
CIA rats, Day 12, right hind paw (R)
  Average animal paw volume percent change: −5.21%
CIA rats, Day 12, right paw, individual animals
  Animal paw volume Day 12 R: 1.25 mL (2×) and 1.26 mL (2×) and 1.37 mL and 1.27 mL and 1.18 mL and 1.29 mL
CIA rats, Day 13, left hind paw (L)
  Average animal paw volume percent change: −3.57%
CIA rats, Day 13, left paw, individual animals
  Animal paw volume Day 13 L: 1.23 mL and 1.24 mL and 1.40 mL and 1.29 mL (2×) and 1.30 mL and 1.25 mL and 1.31 mL
CIA rats, Day 13, right hind paw (R)
  Average animal paw volume percent change: −4.08%
CIA rats, Day 13, right paw, individual animals
  Animal paw volume Day 13 R: 1.26 mL and 1.27 mL and 1.38 mL and 1.25 mL and 1.28 mL and 1.21 mL and 1.31 mL and 1.29 mL
CIA rats, Day 14, left hind paw (L)
  Average animal paw volume percent change: −4.60%
CIA rats, Day 14, left paw, individual animals
  Animal paw volume Day 14 L: 1.24 mL (3×) and 1.39 mL and 1.27 mL and 1.28 mL and 1.29 mL and 1.25 mL
CIA rats, Day 14, right hind paw (R)
  Average animal paw volume percent change: −5.07%
CIA rats, Day 14, right paw, individual animals
  Animal paw volume Day 14 R: 1.26 mL (4×) and 1.38 mL and 1.23 mL and 1.20 mL and 1.29 mL
CIA rats, Day 15, left hind paw (L)
  Average animal paw volume percent change: −5.47%
CIA rats, Day 15, left paw, individual animals
  Animal paw volume Day 15 L: 1.23 mL and 1.21 mL and 1.36 mL and 1.28 mL and 1.26 mL and 1.16 mL and 1.33 mL and 1.27 mL
CIA rats, Day 15, right hind paw (R)
  Average animal paw volume percent change: −5.41%
CIA rats, Day 15, right paw, individual animals
  Animal paw volume Day 15 R: 1.25 mL and 1.24 mL and 1.36 mL and 1.27 mL (2×) and 1.14 mL and 1.32 mL and 1.26 mL
CIA rats, Day 18, left hind paw (L)
  Average animal paw volume percent change: −3.01%
CIA rats, Day 18, left paw, individual animals
  Animal paw volume Day 18 L: 1.28 mL and 1.22 mL and 1.45 mL and 1.31 mL and 1.29 mL and 1.18 mL and 1.34 mL and 1.30 mL
CIA rats, Day 18, right hind paw (R)
  Average animal paw volume percent change: −3.14%
CIA rats, Day 18, right paw, individual animals
  Animal paw volume Day 18 R: 1.28 mL and 1.44 mL and 1.31 mL and 1.29 mL (2×) and 1.34 mL
CIA rats, Day 19, left hind paw (L)
  Average animal paw volume percent change: −3.33%
CIA rats, Day 19, left paw, individual animals
  Animal paw volume Day 19 L: 1.28 mL (2×) and 1.22 mL and 1.44 mL and 1.30 mL (2×) and 1.19 mL and 1.33 mL
CIA rats, Day 19, right hind paw (R)
  Average animal paw volume percent change: −3.57%
CIA rats, Day 19, right paw, individual animals
  Animal paw volume Day 19 R: 1.27 mL (2×) and 1.22 mL and 1.44 mL and 1.31 mL and 1.18 mL and 1.32 mL and 1.30 mL
CIA rats, Day 21, left hind paw (L)
  Average animal paw volume percent change: −3.56%
CIA rats, Day 21, left paw, individual animals
  Animal paw volume Day 21 L: 1.26 mL and 1.22 mL and 1.43 mL and 1.31 mL (2×) and 1.30 mL (2×) and 1.18 mL
CIA rats, Day 21, right hind paw (R)
  Average animal paw volume percent change: −3.51%
CIA rats, Day 21, right paw, individual animals
  Animal paw volume Day 21 R: 1.26 mL and 1.22 mL and 1.43 mL and 1.31 mL and 1.30 mL (2×) and 1.18 mL and 1.32 mL
CIA rats, daily P.O. for 21 days
  signs of disease over the 21-day period: No animals in group 3 (dexamethasone) ever received a score indicating that they exhibited symptoms of disease; also recorded: never exhibited any signs of disease
CIA rats, daily P.O. for 21 days, listed as Dexamethasone
  effect on hind paw volume: effective at controlling paw volume; also recorded: effective at preventing any change in paw volume throughout the entire 21-day period
CIA rats, daily P.O., day 12
  animals showing signs of disease: No animals
Day 0, L paw
  Mean animal paw volume ± SD: 1.33 mL
Day 0, L paw, individual animals
  Animal paw volume percent change: 0.00%
Day 0, R paw
  Mean animal paw volume ± SD: 1.33 mL
Day 0, R paw, individual animals
  Animal paw volume percent change: 0.00%
Day 0, CIA rats
  Average detailed clinical score, left forelimb: 0.00
  Average detailed clinical score, left hind limb: 0.00
  Average detailed clinical score, right forelimb: 0.00
  Average detailed clinical score, right hind limb: 0.00
  Average detailed clinical score, score: 0.00
  Mean overall clinical score ± SD: 0 ± 0
  Detailed Clinical Scores, left forelimb: 0
  Detailed Clinical Scores, left hind limb: 0
  Detailed Clinical Scores, right forelimb: 0
  Detailed Clinical Scores, right hind limb: 0
  Detailed Clinical Scores, score: 0
  Overall clinical score: 0
Day 6, L paw
  Mean animal paw volume ± SD: 1.29 mL
Day 6, L paw, individual animals
  Animal paw volume percent change: −2.97% and −1.53% and −3.61% and −3.02% and −3.09% and −3.08% and −4.12% and −5.51%
Day 6, R paw
  Mean animal paw volume ± SD: 1.29 mL
Day 6, R paw, individual animals
  Animal paw volume percent change: −3.00% and −1.16% and −2.91% and −3.72% and −1.56% and −2.70% and −5.90% and −5.13%
Day 6, CIA rats
  Average detailed clinical score, left forelimb: 0.00
  Average detailed clinical score, left hind limb: 0.00
  Average detailed clinical score, right forelimb: 0.00
  Average detailed clinical score, right hind limb: 0.00
  Average detailed clinical score, score: 0.00
  Mean overall clinical score ± SD: 0 ± 0
  Detailed Clinical Scores, left forelimb: 0
  Detailed Clinical Scores, left hind limb: 0
  Detailed Clinical Scores, right forelimb: 0
  Detailed Clinical Scores, right hind limb: 0
  Detailed Clinical Scores, score: 0
  Overall clinical score: 0
Day 12, L paw
  Mean animal paw volume ± SD: 1.27 mL
Day 12, L paw, individual animals
  Animal paw volume percent change: −10.41% and −7.66% and −1.44% and −3.40% and −1.54% and −6.54% and −3.00% and −5.51%
Day 12, R paw
  Mean animal paw volume ± SD: 1.26 mL
Day 12, R paw, individual animals
  Animal paw volume percent change: −6.74% and −3.09% and −0.73% and −7.43% and −1.56% and −9.27% and −7.01% and −5.86%
Day 12, CIA rats
  Average detailed clinical score, left forelimb: 0.00
  Average detailed clinical score, left hind limb: 0.00
  Average detailed clinical score, right forelimb: 0.00
  Average detailed clinical score, right hind limb: 0.00
  Average detailed clinical score, score: 0.00
  Mean overall clinical score ± SD: 0 ± 0
  Detailed Clinical Scores, left forelimb: 0
  Detailed Clinical Scores, left hind limb: 0
  Detailed Clinical Scores, right forelimb: 0
  Detailed Clinical Scores, right hind limb: 0
  Detailed Clinical Scores, score: 0
  Overall clinical score: 0
Day 13, L paw
  Mean animal paw volume ± SD: 1.28 mL
Day 13, L paw, individual animals
  Animal paw volume percent change: −8.92% and −5.36% and 0.72% and −3.02% and 0.00% and −4.23% and −2.25% and −5.51%
Day 13, R paw
  Mean animal paw volume ± SD: 1.28 mL
Day 13, R paw, individual animals
  Animal paw volume percent change: −5.99% and −2.32% and 0.36% and −7.43% and −0.78% and −6.95% and −3.69% and −5.86%
